Laboratory results: patent US7608688B2, “HIV-1 protein associated with broadly reactive neutralizing antibody response” (The Henry M. Jackson Foundation for the Advancement of …, priority 1998, dated 2009)
Converted amounts (≈) assume the structure as drawn. Like-named read-outs stand apart in the source and are kept apart here. Bridge positions count the residues as written; N and C are the ends. Peptide text beside a SMILES is read from it.

Assay: Solubility of V3 peptides
Format: physicochemical
Details: for solubility: 10 percent DMSO in water, estimated by turbidity, read-out: solubility in 10 percent DMSO solution at pH=7.4
Procedure: To obtain cyclic peptides, solutions of the R2 and R2(313-4PM/HI, 325Q/D) V3 35-mers in dimethylsulfoxide (DMSO), 10 mg/ml, were diluted 1:10 in water at room temperature or 37° C. and the pH was adjusted to 8.5 with ammonium hydroxide. These solutions were aerated by bubbling air through the solutions for periods ≧1 hour. Following aeration, the pH was adjusted to 7.4 using hydrochloric acid. A portion of the R2 35-mer peptide precipitated during these procedures. To obtain an approximate quantitation of the amount of R2 V3 35-mer that remained in solution, the turbidity of the suspension was determined at 480 nm wavelength visible light using a spectrophotometer. The spectrophotometer was blanked with a solution of 10 percent DMSO in water, and a standard curve was produced using slurries of known amounts of the 35-mer peptide suspended in water. The amount of precipitate estimated by turbidity was subtracted from the amount of peptide added at the beginning of the preparation procedure to estimate the amount remaining in solution. […] Peptides were sterilized by passage through 0.22μ pore size filters prior to use.

## CC[C@H](C)[C@@H]1NC(=O)[C@H](CC(=O)O)NC(=O)CNC(=O)[C@H]([C@@H](C)CC)NC(=O)[C@H]([C@@H](C)CC)NC(=O)[C@H](CCC(N)=O)NC(=O)CNC(=O)[C@H]([C@@H](C)O)NC(=O)[C@H]([C@@H](C)O)NC(=O)[C@H](Cc2ccc(O)cc2)NC(=O)[C@H](Cc2ccccc2)NC(=O)[C@H](C)NC(=O)[C@H](CCCNC(=N)N)NC(=O)CNC(=O)[C@@H]2CCCN2C(=O)CNC(=O)[C@H](CCSC)NC(=O)[C@@H]2CCCN2C(=O)[C@H]([C@@H](C)CC)NC(=O)[C@H](CO)NC(=O)[C@H](CCCCN)NC(=O)[C@H](CCCNC(=N)N)NC(=O)[C@H]([C@@H](C)O)NC(=O)[C@H](CC(N)=O)NC(=O)[C@H](CC(N)=O)NC(=O)[C@H](CC(N)=O)NC(=O)[C@@H]2CCCN2C(=O)[C@H](CCCNC(=N)N)NC(=O)[C@H](CO)NC(=O)[C@@H](N)CSSC[C@@H](C(=O)O)NC(=O)[C@H](Cc2c[nH]cn2)NC(=O)[C@H](C)NC(=O)[C@H](CCC(N)=O)NC(=O)[C@H](CCCNC(=N)N)NC1=O [cyclic 35-mer R2 V3 peptide] (H-CSRPNNNTRKSIPMGPGRAFYTTGQIIGDIRQAHC-OH; disulfide 1-35; N-terminus and C-terminus assumed)
pH 7.4, processed at 37° C.
  solubility: 0.85 to 0.9 mg/mL (≈ 220 to 233 µM)
pH 7.4, processed at room temperature
  solubility: 0.3 to 0.35 mg/mL (≈ 77.7 to 90.7 µM)

## CSRPNNNTRKSIPMGPGRAFYTTGQIIGDIRQAHC (Human immunodeficiency virus type 1; R2 strain V3 domain) [R2 V3 35-mer]
water
  solubility in water: insoluble in water
